Laboratory results taken from ChEMBL document CHEMBL1140363, “Structure-driven HtL: design and synthesis of novel aminoindazole inhibitors of c-Jun N-terminal kinase activity” (Bioorg Med Chem Lett, 2005).

Molecular target: Mitogen-activated protein kinase 8 (Homo sapiens, UniProt P45983)
Test: Negative log of inhibitory concentration determined against c-Jun N-terminal kinase (Activity reported against the isolated JNK-1 enzyme)

Sequence of Mitogen-activated protein kinase 8 (P45983 whole entry): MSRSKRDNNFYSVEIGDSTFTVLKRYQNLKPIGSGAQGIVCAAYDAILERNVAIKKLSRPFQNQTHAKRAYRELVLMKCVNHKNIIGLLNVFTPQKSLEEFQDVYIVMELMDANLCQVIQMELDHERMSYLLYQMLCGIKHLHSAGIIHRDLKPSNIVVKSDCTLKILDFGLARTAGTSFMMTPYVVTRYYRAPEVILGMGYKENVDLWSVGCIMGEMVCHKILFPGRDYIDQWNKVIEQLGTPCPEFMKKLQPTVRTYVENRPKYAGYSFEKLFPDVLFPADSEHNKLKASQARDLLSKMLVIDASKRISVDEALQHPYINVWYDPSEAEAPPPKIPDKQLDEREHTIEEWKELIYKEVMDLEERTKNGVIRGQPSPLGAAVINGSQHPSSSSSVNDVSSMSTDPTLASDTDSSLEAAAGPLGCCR

Structure (SMILES) | IC50 [nM]
O=C(NCc1ccccc1Cl)c1cccnc1Oc1ccccc1F | 1580
Clc1cccc(CNc2[nH]nc3cccc(Oc4ccccc4)c23)c1 | 1260
COc1ccc(Oc2ncccc2C(=O)NCc2ccccc2Cl)cc1 | 3980
Nc1ccc2[nH]nc(NCc3ccccc3Cl)c2c1Oc1ccccc1 | 5010
O=[N+]([O-])c1ccc2[nH]nc(NCc3ccccc3Cl)c2c1Oc1ccccc1 | 1580
Clc1ccc(Cl)c(CNc2[nH]nc3cccc(Oc4ccccc4)c23)c1 | 794
CC(=O)Nc1ccc(CNc2[nH]nc3cccc(Oc4ccc(F)cc4)c23)cc1 | 501
COc1ccc(OC)c(CNC(=O)c2cccnc2Oc2ccccc2)c1 | 100
C[C@H](NC(=O)c1cccnc1Oc1ccccc1)c1ccccc1 | 6310
CC(=O)Nc1ccc(CNc2[nH]nc3ccnc(Oc4ccccc4)c23)cc1 | 158
CC(=O)Nc1ccc(CNc2[nH]nc3cccc(Oc4ccccc4)c23)cc1 | 794
COc1ccc(OC)c(CNc2[nH]nc3ccnc(Oc4ccccc4)c23)c1 | 15.8

Next, values leading:

IC50 [nM] | Structure (SMILES)
794 | CC(=O)Nc1ccc(CNc2[nH]nc3cccc(Oc4ccc(S(C)(=O)=O)cc4)c23)cc1
398 | COc1ccc(OC)c(CNc2[nH]nc3cccc(Oc4ccc(S(C)(=O)=O)cc4)c23)c1
794 | COc1ccc(OC)c(CNc2[nH]nc3ccc([N+](=O)[O-])c(Oc4ccccc4)c23)c1
200 | COc1ccc(OC)c(CNc2[nH]nc3cccc(Oc4ccc(F)cc4)c23)c1
126 | COc1ccc(OC)c(CNc2[nH]nc3cccc(Oc4ccccc4)c23)c1
